Results published in patent US8096419B2, “Compound” (PCI Biotech AS, priority 2001, dated 2012).
“Also recorded” adds a separate entry of the source.

Key:
[1] = tested on: V79 cells; experiment: Cell survival by colony-forming test after photosensitizer and light; assay type: cell-based, Chinese hamster
Experimental: (§1) Cells of the established line V79 (ATCC CCL-93) derived from Chinese hamster lung fibroblasts were used. The cells were grown in MEM medium containing 10% foetal calf serum (FCS from Gibco, Paisley, UK), 100 U ml^−1 penicillin and 100 μg ml^−1 streptomycin (Gibco) at 37° C. in an incubator flushed with 5% CO2 in air. The cells were subcultured twice a week.
The cells were inoculated in 25 cm^2 flasks (Nunclon, Denmark) containing MEM medium with 10% FCS and left at 37° C. for 4-5 hours for proper attachment to the substratum. Subsequently, the cells were washed 3 times with medium and exposed to 1 μg/ml TPPS2a or TPCS2a in serum-containing medium for 18 hours. The cells were subsequently washed 3 times with the sensitizer-free medium and incubated for 1 hour before light exposure. The cells were then exposed to red light (Phillips TL 20 W/09) filtered through a Cinemoid 35 filter or blue light (Appl. Photophysics, Nood. 3026, London). […]
Cell survival was measured by the colony-forming test as described by Berg et al. (Photochem. Photobiol. 53: 203-210, 1991). […] The cells were then fixed in ethanol, stained with methylene blue and the colonies counted. Inhibition of protein synthesis was assessed by [^3H]-leucine incorporation into proteins, measured at 24 hours post light exposure as described by Llorente et al. (FEBS Lett. 431: 200-204, 1998).

[2] = tested on: V79 cells; experiment: Inhibition of protein synthesis by [3H]-leucine incorporation (PCI of gelonin); assay type: cell-based, Chinese hamster
Experimental: as §1
The cells were inoculated in 25 cm^2 flasks (Nunclon, Denmark) containing MEM medium with 10% FCS and left at 37° C. for 4-5 hours for proper attachment to the substratum. Subsequently, the cells were washed 3 times with medium and exposed to 1 μg/ml TPPS2a or TPCS2a in serum-containing medium for 18 hours. The cells were subsequently washed 3 times with the sensitizer-free medium and incubated for 1 hour before light exposure. The cells were then exposed to red light (Phillips TL 20 W/09) filtered through a Cinemoid 35 filter or blue light (Appl. Photophysics, Nood. 3026, London). The fluence rates reaching the cells were 1.35 mW/cm^2 and 1.5 mW/cm^2 from the red and the blue lamps respectively.
Cell survival was measured by the colony-forming test as described by Berg et al. (Photochem. Photobiol. 53: 203-210, 1991). 1500 cells were inoculated in 25 cm^2 plastic tissue-culture flasks and treated with the photosensitizer and light as described above. After photochemical treatment the V79 cells were left for 5 days at 37° C. in serum-containing culture medium to allow for formation of countable colonies. The cells were then fixed in ethanol, stained with methylene blue and the colonies counted. Inhibition of protein synthesis was assessed by [^3H]-leucine incorporation into proteins, measured at 24 hours post light exposure as described by Llorente et al. (FEBS Lett. 431: 200-204, 1998).

[3] = Absorption spectra on photochemical reduction of TPPS2a; assay type: physicochemical; conditions: benzene/TEA, peak shifted from 646 nm to 655 nm
Experimental: A mixture of 950 μl benzene/triethylamine (TEA) (18:7), 32 μl dimethyl sulfoxide (DMSO) and 18 μl TPPS2a (from a solution of 1 mg/ml in DMSO) was prepared and saturated with nitrogen for 5 min in a 1 ml cuvette. The mixture was then exposed to light from a 500 W high pressure Xenon lamp fitted to a Bausch and Lomb grating monochromator. The cuvette was exposed to 545±15 nm light at 15 W/m^2. The fluence rate was monitored by means of a UDT 11 A photodetector with a 223 radiometric filter. The absorption spectra was measured regularly by a Perkin-Elmer Lambda 15 UV/VIS spectrophotometer. The light pass was 1 cm.
In accordance with the method described by Harel et al. (Photochem. Photobiol. 23: 337-341, 1976), TPPS2a was exposed to light in a solution of triethylamine (TEA) in benzene saturated with nitrogen. The solution was exposed to light of 545 nm in a cuvette as described above in “Materials and Methods”.

[4] = tested on: V79 cells; conditions: Berg et al. Cancer Res. 59: 1180-1183, 1999; cited from earlier work

Substance | sensitivity of treated cells to photoinactivation with blue light relative to TPPS2a ([1]; 18 hours incubation with sensitizer, 1 hour sensitizer-free medium, blue light, versus TPPS2a) | reduction induced by TPCS2a alone in the clonogenicity assay ([1]; TPCS2a alone) | potentiation of the cytotoxicity of gelonin by TPCS2a and light ([2]; 1 μg/ml TPCS2a plus 1 μg/ml gelonin, red light, protein synthesis 24 hours after exposure to light) | reduction in protein synthesis induced by TPCS2a alone ([2]; 1 μg/ml TPCS2a, without gelonin) | increase in the extinction coefficient of band I of the Q-bands versus TPPS2a [3] | reduction of protein synthesis by gelonin alone ([2]; 1 μg/ml gelonin for 18 hours) | toxicity of gelonin alone or in combination with light (literature) [4]
Tetraphenyl chlorin disulfonate [TPCS2a] | equally sensitive; also recorded: equally efficient | not observed | strongly potentiate | 20% | 5.8 fold | – | –
gelonin: type I ribosome-inactivating protein toxin, transfer molecule for PCI | – | – | – | – | – | about 10% | low toxicity
